Measurements: patent publication US20040067565A1, “Selective functionalization of hydrocarbons with isolated oxygenases and mediator based regeneration” (priority 2002, published 2004)
Marks after values point to notes of the source that are not given here.

Experiments:
Cytochrome C (cytC) = target: T1, Cytochrome C (cytC) (Equus caballus, UniProt P00004); assay: [Cp*Rh(bpy)H]+ catalyzed, formate driven reduction of Cytochrome C (absorption at 550 nm); assay type: biochemical, horse; conditions: for TF ([Cp*Rh(bpy)(H2O)]2+) / dc(CytC)red/dt: c(CytC) 31.2 μM, c(NaHCO2) 150 mM
T1 construct: cytC- (from horse heart, Fluka, Buchs Switzerland); purchased Fluka, Buchs Switzerland; host or cells: horse heart
Procedure: In a typical experiment potassium phosphate buffer (50 mM, pH 7.0, c(NaHCO2)=150 mM) is supplemented with cytC- (from horse heart, Fluka, Buchs Switzerland) and [Cp*Rh(bpy)(H2O)]^2+-stocksolutions to 1 ml final volume in a quartz kuvette and placed into a thermostatted (T=30° C.) UV-spectrophotometer (UNICAM). After addition of the components, the absorption at λ=550 nm is followed. Concentrations of reduced CytC were determined after background correction according to the law of Lamber-Beer utilizing a molar extinction coefficient for reduced CytC of […].
In another typical experiment, the reaction temperature was varied between 20 and 35° C.
To exclude stoichiometric interaction of [Cp*Rh(bpy)(H2O)]^2+ with cytC, in another experiment low c([Cp*Rh(bpy)(H2O)]^2+) were applied. In 50 ml degassed potassium phosphate buffer (50 mM, pH 7.0, c(NaHCO2)=150 mM) 10 μM ([Cp*Rh(bpy)(H2O)]^2+) were incubated with 80 μM cytC (FIG. 9).

[1] = target: monooxygenase component of styrene monooxygenase (StyA) (Pseudomonas sp, UniProt O50214); assay: [Cp*Rh(bpy)(H2O)]2+ driven, StyA-catalyzed epoxidation / sulfoxidation; assay type: biochemical
Procedure: In a typical experimental setup 1 ml total volume was placed in an Eppendorf cup in a Thermomixer. The temperature was set to 37° C. and the reaction mixture was shaken thoroughly to ensure O2 intake.
Product formation was followed by reversed phase HPLC. The HPLC system (Merck) consisted of a D-7000 controller, L-7200 autosampler, L-7400 UV detector, L-7100 liquid chromatography pump and was fitted with a CC250/4 Nucleosil 100-5 C18 HD column. Samples were eluted under isocratic conditions using 60% acetonitrile and 40% water at a flow rate of 1 ml×min^−1. The elution pattern was monitored at 210 nm.
0.2 mM [Cp*Rh(bpy)(H2O)]^2+, 0.05 mM FAD, 0.005 mM FMN, 2 mM styrene, 280 U catalase, and 1.16 μM StyA in 50 mM potassium phosphate buffer with 150 mM sodium formate were incubated at 37° C. and agitation at 1500 rpm. At intervals, reactions were stopped by addition of one equivalent volume of cold acetonitrile. After centrifugation (15 min at 4° C. and 23000×g the upper phase was analyzed by reverse phase HPLC. Concentrations were corrected according to the phase ratio after centrifugation. Results from this experiment are given in FIG. 10 and Table 3.
0.2 mM [Cp*Rh(bpy)(H2O)]^2+, 0.02 mM FAD, 2 mM substrate, 200 U catalase, and 1.47 μM StyA in 50 mM potassium phosphate buffer with 150 mM sodium formate were incubated at 37° C. and agitation at 1500 rpm.
Styrene oxide was analyzed using a CC200/4 Nucleodex α-PM (Machery-Nagel). As eluent 60% methanol and 40% 6.2 mM TEAA in water was used at a flow rate of 0.7 ml×min^−1. 1,2-Dihydronaphthalene oxide, trans-β-Methylstyrene oxide, indene oxide, and methyl phenyl sulfoxide were extracted from the reaction buffer with one aliquot hexane und analyzed unsing normal phase HPLC with a CHIRACEL OB—H column and hexane:isopropanol 95:5 (9:1 for methyl phenyl sulfoxide) at a flow rate of 0.5 ml*min^−1 as mobile phase. As reference either authentical samples of racemic epoxides were used. (Table 4). […]

[2] = [Cp*Rh(bpy)(H2O)]2+ catalyzed reduction of FAD leading to hydrogen peroxide
Procedure: (§1) Hydrogen peroxide was determined enzymatically, based on the method by Saito et al.. Samples were mixed with a solution of 0.6 mM 4-amino antipyrine, 9 mM phenol, and 6 U×ml^−1 peroxidase from Coprinus cinereus. After one minute incubation at room temperature the absorption at 550 nm was measured.
0.2 mM [Cp*Rh(bpy)(H2O)]^2+, 0.05 mM FAD, and 1.16 μM StyA in. 50 mM potassium phosphate buffer with 150 mM sodium formate were incubated at 37° C. and agitation at 1500 rpm. At intervals samples were taken and analyzed for their hydrogen peroxide concentration. From the results a catalytic performance of 48 turnovers per hour for [Cp*Rh(bpy)(H2O)]^2+ was calculated.
In a second experiments a reaction mixture of this composition was supplemented with 2 mM styrene. After 15 min the reaction was stopped and analyzed for hydrogen peroxide and styrene oxide. 0.28 mM styrene oxide and […] were found at this time corresponding to an overall catalytic activity of [Cp*Rh(bpy)(H2O)]^2+ of 47 turnovers per hour.
as §1, with “peroxide produced” for “peroxide”, “enzymatically with a modified assay by” for “enzymatically, based on the”
0.2 mM [Cp*Rh(bpy)(H2O)]^2+, 0.225 mM FAD dissolved in O2 saturated potassium phosphate buffer were thermostated at 37° C. in an air-tight reaction vessel (O2-measurements: 2 ml, UV-measurements: 1 ml quartz kuvette). Reactions were started on addition of sodium formate stock solution (final concentration: 150 mM).
1 ml of 19 μM Cp*Rh(bpy)(H2O)]^2+ and 0-200 μM FAD in 50 mM potassium phosphate buffer (pH 7.0, c(NaHCO2)=150 mM) are placed in a 1.5 ml Eppendorf vial and incubated at 37° C. and agitation at 1500 rpm. At intervals […] samples are withdrawn and analyzed for their H2O2 content (FIG. 17).

[3] = test system: several dehydrogenases (HLADH, TBADH, etc.); conditions: previously reported [13]; cited from earlier work
[4] = T 20 °C, c([Cp*Rh(bpy)(H2O)]2+) 100 μM
[5] = T 30 °C, c([Cp*Rh(bpy)(H2O)]2+) 100 μM
[6] = T 35 °C, c([Cp*Rh(bpy)(H2O)]2+) 50 μM
[7] = FIG. 10: 37 °C, 0.2 mM [Cp*Rh(bpy)(H2O)]2+, 0.05 mM FAD, 2 mM styrene, 1.16 μM StyA

monooxygenase component of styrene monooxygenase (StyA), sequence (O50214 whole entry): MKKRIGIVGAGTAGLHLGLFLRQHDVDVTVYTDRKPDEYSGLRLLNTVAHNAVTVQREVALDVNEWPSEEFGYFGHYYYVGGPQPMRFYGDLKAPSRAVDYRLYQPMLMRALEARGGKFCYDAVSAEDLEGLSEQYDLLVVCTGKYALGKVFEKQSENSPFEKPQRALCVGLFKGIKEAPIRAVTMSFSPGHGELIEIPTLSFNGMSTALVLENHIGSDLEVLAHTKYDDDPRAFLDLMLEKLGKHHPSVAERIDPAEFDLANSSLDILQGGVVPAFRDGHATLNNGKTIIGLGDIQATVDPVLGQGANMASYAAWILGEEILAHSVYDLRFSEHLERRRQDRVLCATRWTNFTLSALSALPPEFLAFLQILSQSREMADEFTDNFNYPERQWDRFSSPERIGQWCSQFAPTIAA
T1 sequence (P00004 whole entry): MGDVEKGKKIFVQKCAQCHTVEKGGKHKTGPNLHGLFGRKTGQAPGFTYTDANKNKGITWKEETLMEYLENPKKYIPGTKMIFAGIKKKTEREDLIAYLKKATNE

Cc1c(C)c(C)[c-](C)c1C.O.[Rh+3].c1ccc(-c2ccccn2)nc1 [[Cp*Rh(bpy)(H2O)]^2+]
total turnover number (Cytochrome C (cytC); FIG. 9: 10 μM [Cp*Rh(bpy)(H2O)]2+, 80 μM cytC, 150 mM NaHCO2, 30 °C, degassed buffer, not optimized): 6 | TF ([Cp*Rh(bpy)(H2O)]2+) (Cytochrome C (cytC); [4]): 4 h⁻¹ | dc(CytC)red/dt (Cytochrome C (cytC); [4]): 0.4 mM * h^− | TF ([Cp*Rh(bpy)(H2O)]2+) (Cytochrome C (cytC); [5]): 21 h⁻¹ | dc(CytC)red/dt (Cytochrome C (cytC); [5]): 2.1 mM * h^− | TF ([Cp*Rh(bpy)(H2O)]2+) (Cytochrome C (cytC); [6]): 32 h⁻¹ | dc(CytC)red/dt (Cytochrome C (cytC); [6]): 1.6 mM * h^− | Turnover frequencies as CytC reduction catalyst (Cytochrome C (cytC); depend on the reaction temperature (20-35 °C)): 4-32 turnovers per hour | [Cp*Rh(bpy)(H2O)]2+ performance TF [1, 7]: 11.3 h⁻¹ | [Cp*Rh(bpy)(H2O)]2+ performance TTN [1, 7]: 5.3 | relative activity ([1]; calculated on FADH2 generation rate determined in the absence of StyA, FIG. 10 conditions): 16.1^c % | catalytic performance (hydrogen peroxide formation) ([2]; 0.2 mM [Cp*Rh(bpy)(H2O)]2+, 0.05 mM FAD, 1.16 μM StyA, 150 mM sodium formate, 37 °C, no styrene): 48 turnovers per hour | catalytic activities from initial H2O2-formation rates ([2]; 37 °C, c(NaHCO2) 0.15 M, 19 μM [Cp*Rh(bpy)(H2O)]2+, 0-200 μM FAD): 69.9±2.5 catalytic cycles per hour | overall catalytic activity (hydrogen peroxide and styrene oxide) ([2]; as E39, supplemented with 2 mM styrene, after 15 min): 47 turnovers per hour | influence on the activity of several dehydrogenases [3]: no influence on the activity
